From US11311501B2, “Mitoriboscins: mitochondrial-based therapeutics targeting cancer cells, bacteria, and pathogenic yeast” (LUNELLA BIOTECH, INC., priority 2017, dated 2022)
Converted amounts (≈) assume the structure as drawn.

Experiments:
MCF7 cells [1] = assay: Seahorse XF96 metabolic flux analysis (OCR/ECAR); assay type: cell-based, human; settings: for rank order potency to reduce maximal respiration and ATP production: top 10 hits, FIG. 10; for effect on glycolysis: ECAR; for inhibition of mitochondrial oxygen-consumption: FIGS. 7, 8 and 9
Text: The present approach further involves methods of functional validation at step S105, during which a compound's function as a mitochondrial inhibitor may be confirmed. A number of methods may be used for functional validation, including, for example, metabolic flux analysis, mammosphere assays, viability assays, and antibiotic (anti-bacterial and/or anti-fungal) activity. For example, the inventors determined extracellular acidification rates (ECAR) and real-time oxygen consumption rates (OCR) for MCF7 cells using the Seahorse Extracellular Flux (XF96) analyzer (Seahorse Bioscience, MA, USA). MCF7 cells were maintained in DMEM supplemented with 10% FBS (fetal bovine serum), 2 mM GlutaMAX, and 1% Pen-Strep. 5,000 cells per well were seeded into XF96-well cell culture plates, and incubated overnight at 37° C. in a 5% CO2 humidified atmosphere. After 24 hours, cells were treated with selected compounds showing ATP-depletion without prominent cytotoxicity at various concentrations (or vehicle alone). After 72 hours of treatment, cells were washed in pre-warmed XF assay media (for OCR measurement, XF assay media was supplemented with 10 mM glucose, 1 mM Pyruvate, 2 mM L-glutamine and adjusted at pH 7.4). Cells were maintained in 175 μL/well of XF assay media at 37° C. in a non-CO2 incubator for 1 hour. During incubation, 25 μL of 80 mM glucose, 9 μM oligomycin, 1M 2-deoxyglucose (for ECAR measurement) and 25 μL of 10 μM oligomycin, 9 μM FCCP, 10 μM rotenone, 10 μM antimycin A (for OCR measurement) in XF assay media was loaded into the injection ports of the XFe-96 sensor cartridge. During the experiment, the instrument injected these inhibitors into the wells at a given time point, while ECAR/OCR was measured continuously. ECAR and OCR measurements were normalized by protein content (using the Sulphorhodamine B assay). Data sets were analyzed by XFe-96 software, using one-way ANOVA and Student's t-test calculations. All experiments were performed in triplicate, and results validated the mitochondrial inhibition effects of mitoriboscin compounds described herein. It should be appreciated that numerous methods are known for functional validation, and that persons of skill in the art may select one or more depending on the validation needs (e.g., other assays that measure or approximate mitochondrial function). The present approach involves methods of function validation of mitoriboscin compounds. For example, the inventors assessed functional validation of three candidates using the Seahorse Analyzer, which quantitatively measures oxygen consumption rate (OCR) and extracellular acidification rate (ECAR). OCR is a surrogate marker for OXPHOS and ECAR is a surrogate marker for glycolysis and L-lactate production.

MCF7 cells [2] = assay: Mammosphere formation assay; assay type: cell-based, human; settings: 5 μM, FIG. 5
Text: The present approach involves methods of testing compounds, and in particular mitoriboscins, for anti-cancer properties. As discussed above, vHTS and computational chemistry may be used to identify candidate mitochondrial inhibitors. Those candidates may be tested for specific anti-cancer properties. For examples, the inventors compared seven candidate compounds in parallel for their ability to inhibit mammosphere formation in MCF7 cells. […] For example, 23/G4 (Group 1) reduced mammosphere formation by 50% at this concentration. Similarly, 24/F9 (Group 2) and 24/D4 (Group 3), both reduced mammosphere formation by ˜90%.

E. coli ATCC 25922 = assay: MIC by broth dilution method; assay type: cell-based; settings: E. coli ATCC 25922, 24 hours at 37° C.; for MIC50 / MIC99: Escherichia coli, ATCC25922
Experimental: (§1) The minimal inhibitory concentration (MIC) of the antibacterial compounds may be determined using the broth dilution method, according to CLSI guidelines. Test compound solutions (or antibiotic solutions used as positive controls) were diluted, serially, with MHB medium. Then, the suspensions of the microorganisms, prepared from overnight cultures of bacteria in the MHB medium, at a concentration of 10^6 CFU/ml, were added to each dilution in a 1:1 ratio. McFarland standards were used as a reference to adjust the turbidity of microorganism suspensions. Growth (or lack thereof) of the microorganisms was determined after incubation for 24 hours at 37° C. by turbidimetry (wavelength of 600 nm). […] The susceptibility test by measurement of MIC was performed in triplicate and repeated three times independently.

K. pneumoniae ATCC 13883 = assay: MIC by broth dilution method; assay type: cell-based; settings: for MIC50 / MIC99: Klebsiella pneumoniae, ATCC13883
Experimental: as §1

[3] = test system: Staph. aureus ATCC 25923 (MSSA); assay: MIC by broth dilution method; assay type: cell-based; settings: for MIC50 / MIC99: Staphylococcus aureus
Experimental: as §1

[4] = test system: Strept. pyogenes ATCC 19615; assay: MIC by broth dilution method; assay type: cell-based; settings: for MIC50 / MIC99: Streptococcus pyogenes, ATCC19615
Experimental: as §1

P. auriginosa ATCC 27853 = assay: MIC by broth dilution method; assay type: cell-based, P. aeruginosa; settings: for MIC50 / MIC99: Pseudomonas aeruginosa, ATCC27853
Experimental: as §1

C. albicans = assay: MIC by broth dilution method; assay type: cell-based; settings: C. albicans ATCC 13883
Experimental: as §1, with “nm). MIC 50 and MIC 99 are defined as the minimum inhibitory concentration of the compound required for 50% and 99% inhibition of bacterial growth.” for “nm).”, “independently. Statistical significance was determined using the Student's t-test and values of less than 0.05 were considered significant.” for “independently.”
(§2) In order to determine the minimal inhibitory concentration (MIC) for 24/F9, 24/D4 and 23/G4, the broth dilution method may be performed.

MRSA ATCC 43300 = assay: MIC by broth dilution method; assay type: cell-based, Methicillin-resistant Staphylococcus aureus; settings: for sensitivity of MRSA: summary of Table 4
Experimental: as §1, with “nm). MIC 50 and MIC 99 are defined as the minimum inhibitory concentration of the compound required for 50% and 99% inhibition of bacterial growth.” for “nm).”, “independently. Statistical significance was determined using the Student's t-test and values of less than 0.05 were considered significant.” for “independently.”
as §2

[5] = Staph. aureus ATCC 25923 (Table 3)
[6] = Staphylococcus aureus, MRSA ATCC 43300

SMILES	MIC 50% ([3]; MSSA ATCC 25923 (Table 4)) [µg/mL]	MIC 99% ([3]; MSSA ATCC 25923 (Table 4)) [µg/mL]	MIC50 (E. coli ATCC 25922) [µg/mL]	MIC99 (E. coli ATCC 25922) [µg/mL]	MIC50 (K. pneumoniae ATCC 13883) [µg/mL]	MIC99 (K. pneumoniae ATCC 13883) [µg/mL]	MIC50 [3, 5] [µg/mL]	MIC99 [3, 5] [µg/mL]	MIC50 [4] [µg/mL]	MIC99 [4] [µg/mL]	MIC50 (P. auriginosa ATCC 27853) [µg/mL]	MIC99 (P. auriginosa ATCC 27853) [µg/mL]	rank order potency to reduce maximal respiration and ATP production (MCF7 cells [1])	also measured
OC1C(NCc2ccccc2)CCCC1Oc1ccccc1Oc1cccc(F)c1 (centres unmarked) [23/E9]													top 6	
CCCc1ccc(OCc2ccccc2)c(CN2CCC3(CC2)CC(N(C)C)C(C)(O)CO3)c1 (centres unmarked) [24/D4]	16 (≈ 34.3 µM)	32 (≈ 68.6 µM)												reduction of mammosphere formation (MCF7 cells [2]): ~90%; effect on glycolysis (MCF7 cells [1]): suppressed glycolysis; inhibition of mitochondrial oxygen-consumption (MCF7 cells [1]): dose-dependently inhibited; MIC 50% (E. coli ATCC 25922): 16 µg/mL (≈ 34.3 µM); MIC 99% (E. coli ATCC 25922): 32 µg/mL (≈ 68.6 µM); MIC 50% (K. pneumoniae ATCC 13883): 16 µg/mL (≈ 34.3 µM); MIC 99% (K. pneumoniae ATCC 13883): 32 µg/mL (≈ 68.6 µM); MIC 50% [3, 5]: 16 µg/mL (≈ 34.3 µM); MIC 99% [3, 5]: 32 µg/mL (≈ 68.6 µM); MIC 50% [4]: 16 µg/mL (≈ 34.3 µM); MIC 99% [4]: 32 µg/mL (≈ 68.6 µM); MIC 50% (P. auriginosa ATCC 27853): 16 µg/mL (≈ 34.3 µM); MIC 99% (P. auriginosa ATCC 27853): 32 µg/mL (≈ 68.6 µM); MIC 99% (C. albicans): >64 µg/mL; MIC 50% (MRSA ATCC 43300; MRSA ATCC 43300): 16 µg/mL (≈ 34.3 µM); MIC 99% (MRSA ATCC 43300; MRSA ATCC 43300): >32 µg/mL; sensitivity of MRSA (MRSA ATCC 43300): sensitive
CN1CCN(C2CCN(Cc3cc(C(C)(C)C)ccc3OCc3ccccc3)CCC2O)CC1 (centres unmarked) [24/F9]	32 (≈ 68.7 µM)	64 (≈ 137 µM)											top 6	reduction of mammosphere formation (MCF7 cells [2]): ~90%; effect on glycolysis (MCF7 cells [1]): suppressed glycolysis; inhibition of mitochondrial oxygen-consumption (MCF7 cells [1]): dose-dependently inhibited; MIC 50% (E. coli ATCC 25922): 32 µg/mL (≈ 68.7 µM); MIC 99% (E. coli ATCC 25922): 64 µg/mL (≈ 137 µM); MIC 50% (K. pneumoniae ATCC 13883): 32 µg/mL (≈ 68.7 µM); MIC 99% (K. pneumoniae ATCC 13883): 64 µg/mL (≈ 137 µM); MIC 50% [3, 5]: 32 µg/mL (≈ 68.7 µM); MIC 99% [3, 5]: 64 µg/mL (≈ 137 µM); MIC 50% [4]: 32 µg/mL (≈ 68.7 µM); MIC 99% [4]: 64 µg/mL (≈ 137 µM); MIC 50% (P. auriginosa ATCC 27853): >32 µg/mL; MIC 99% (P. auriginosa ATCC 27853): >64 µg/mL; MIC 99% (C. albicans): >64 µg/mL; MIC 50% (MRSA ATCC 43300; MRSA ATCC 43300): 64 µg/mL (≈ 137 µM); MIC 99% (MRSA ATCC 43300; MRSA ATCC 43300): >64 µg/mL
CN1CCCN(C2CCN(Cc3cc(Cl)ccc3OCc3ccccc3)CCC2O)CC1 (centres unmarked) [24/H6]													top 6	
CN(C)C1CC2(CCN(Cc3cc(Cl)ccc3OCc3ccccc3)CC2)OCC1(C)O (centres unmarked) [24/H9]													top 6	
CN(C)Cc1cccc(C2CCCN2Cc2ccccc2OCc2cccc(F)c2)n1 (centres unmarked) [25/B3]													top 6	
Clc1ccc(COC(Cn2ccnc2)c2ccc(Cl)cc2Cl)c(Cl)c1 (centres unmarked) [MICONAZOLE, reference compound]														MIC50 (C. albicans; Candida albicans, ATCC13883): 0.5 µg/mL (≈ 1.2 µM); MIC99 (C. albicans; Candida albicans, ATCC13883): 1 µg/mL (≈ 2.4 µM)

Continued, in another order:

MIC 50% ([3]; MSSA ATCC 25923 (Table 4)) [µg/mL]	MIC 99% ([3]; MSSA ATCC 25923 (Table 4)) [µg/mL]	MIC50 (E. coli ATCC 25922) [µg/mL]	MIC99 (E. coli ATCC 25922) [µg/mL]	MIC50 (K. pneumoniae ATCC 13883) [µg/mL]	MIC99 (K. pneumoniae ATCC 13883) [µg/mL]	MIC50 [3, 5] [µg/mL]	MIC99 [3, 5] [µg/mL]	MIC50 [4] [µg/mL]	MIC99 [4] [µg/mL]	MIC50 (P. auriginosa ATCC 27853) [µg/mL]	MIC99 (P. auriginosa ATCC 27853) [µg/mL]	SMILES	rank order potency to reduce maximal respiration and ATP production (MCF7 cells [1])	also measured
4 (≈ 10.9 µM)	8 (≈ 21.9 µM)	16 (≈ 43.8 µM)	> 32	32 (≈ 87.6 µM)	> 64	4 (≈ 10.9 µM)	8 (≈ 21.9 µM)	4 (≈ 10.9 µM)	8 (≈ 21.9 µM)	128 (≈ 350 µM)	256 (≈ 701 µM)	CC1(C)S[C@@H]2[C@H](NC(=O)[C@H](N)c3ccc(O)cc3)C(=O)N2[C@H]1C(=O)O [AMOXICILLIN, reference compound]		sensitivity of MRSA (MRSA ATCC 43300): resistant; MIC50 (MRSA ATCC 43300; [6]): > 64 µg/mL; MIC99 (MRSA ATCC 43300; [6]): > 64 µg/mL
		0.5 (≈ 1.13 µM)	2 (≈ 4.5 µM)	2 (≈ 4.5 µM)	4 (≈ 9 µM)	0.5 (≈ 1.13 µM)	1 (≈ 2.25 µM)	0.5 (≈ 1.13 µM)	1 (≈ 2.25 µM)	1 (≈ 2.25 µM)	2 (≈ 4.5 µM)	C[C@H]1c2cccc(O)c2C(=O)C2=C(O)[C@]3(O)C(=O)C(C(N)=O)=C(O)[C@@H](N(C)C)[C@@H]3[C@@H](O)[C@@H]21 [DOXYCYCLINE, reference compound]		MIC99 (C. albicans; Candida albicans, ATCC13883): > 64 µg/mL
		128 (≈ 379 µM)	> 128	128 (≈ 379 µM)	256 (≈ 759 µM)	1 (≈ 2.96 µM)	2 (≈ 5.93 µM)	1 (≈ 2.96 µM)	2 (≈ 5.93 µM)	64 (≈ 190 µM)	256 (≈ 759 µM)	CC(=O)NC[C@H]1CN(c2ccc(N3CCOCC3)c(F)c2)C(=O)O1 [LINEZOLID, reference compound]		
